Laboratory results from US11077108B2, “Allosteric corticotropin-releasing factor receptor 1 (CRFR1) antagonists that decrease p-tau and improve cognition” (The Regents of the University of California, priority 2016, dated 2021).
Values joined by “and” are separate entries in the source; they are usually repeats but may differ in a detail not shown here. Identical values can stand only once. Each block holds one compound with its values, some of them ahead of it.

Experiments:
[1] = Parallel Artificial Membrane Permeability Assay (PAMPA), kIAM on IAM.PC.DD.2 HPLC column; assay type: in vitro ADME; settings: kIAM >1 indicative of good brain permeability
Protocol: Receptor Binding, Inhibition, and Parallel Artificial Membrane Permeability Assay (PAMPA).
Agilent 1260 infinity high-performance liquid chromatography system was used for analysis. The analytical column used was an IAM.PC.DD.2 column (4.6 mm i.d.×10 cm length, particle size […], pore size 300 Å) purchased from Regis Technologies (Morton Grove, Ill.). The mobile phase was a mixture of acetonitrile and water (35:65 v/v). The flow rate of the mobile phase was maintained at 1.0 ml/min at 25° C., and the ultraviolet absorption wavelength was set at 254 nm. Analysis was performed using 5 μL injection of the 2 mM stock solutions of the compounds. Compounds with kIAM values >1 in the PAMPA assay in our hands are indicative of good brain permeability.

CRFR1 [2] = molecular target: T1, CRFR1 (Homo sapiens, UniProt P34998); experiment: CRF1 antagonist effect (inhibition of CRFR1 cAMP signaling upon CRF binding); assay type: cell-based; parameters: expressed in transfected cells; host or cells: COS-M6 (transiently transfected)
T1 sequence (P34998 24-415): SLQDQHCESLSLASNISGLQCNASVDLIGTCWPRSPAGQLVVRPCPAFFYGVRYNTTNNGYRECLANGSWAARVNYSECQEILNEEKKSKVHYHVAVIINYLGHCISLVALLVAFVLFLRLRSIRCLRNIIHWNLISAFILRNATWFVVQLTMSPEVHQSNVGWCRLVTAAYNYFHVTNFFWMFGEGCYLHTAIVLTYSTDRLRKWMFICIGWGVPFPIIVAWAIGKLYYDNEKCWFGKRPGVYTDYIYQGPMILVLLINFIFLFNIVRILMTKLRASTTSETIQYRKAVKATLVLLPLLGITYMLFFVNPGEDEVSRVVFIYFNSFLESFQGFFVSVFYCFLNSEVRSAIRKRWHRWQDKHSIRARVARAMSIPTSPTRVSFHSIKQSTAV

[3] = system: tau and ptau in SH-SY5Y cells; experiment: tau and p-tau levels in SH-SY5Y cells after compound treatment (AlphaLISA); assay type: cell-based, Human; settings: 1 μM compound, 24 hours, no CRF
Protocol: Human neuroblastoma SH-SY5Y cells were treated for 24 hours with 1 μM compound, and then tau and ptau levels were determined from cell lysates using AlphaLISA (FIG. 7A). T41, as well as J32. […] Antalarmin (Ant), a known CRF1 antagonist, was used as a control.

CRFR1 [4] = molecular target: T1, CRFR1; experiment: Radioligand-receptor binding assay (agonist radioligand), CRF1 Kd; parameters: expressed in transfected cells; host or cells: HEK293 (permanently transfected), membranes; settings: [125I]Tyr-sauvagine agonist radioligand
Protocol: Radioligand-Receptor Binding Assays (Agonist Radioligand).
Isolation of membranes from permanently transfected HEK293 cells expressing tCRFR1 or hCRFR1 and Scatchard analysis were performed with 50-100 ng protein as described (3) except that 50 pM [^125I]Tyr-sauvagine (NEN) was used as radioligand. [^125I]Tyr-Sauvagine was chosen as radioligand because of its equal high affinity for both CRF-R1 and CRF-R2. Nonspecific binding was always defined as residual [^125I]Tyr-sauvagine binding in the presence of 1 μM unlabeled ligand. The dissociation constant, KD, was calculated by the Ligand program (Munson et al. (1980) Anal. Biochem. 107: 220).

[5] = system: tau and ptau in SH-SY5Y cells with CRF challenge; experiment: CRF challenge assay, tau and p-tau in SH-SY5Y cells; assay type: cell-based, Human; settings: for ptau/tau ratio: 1 μM compound, three days
Protocol: […] On the next day, cells were treated with 100 nM CRF for 3 days. Next, cells were lysed with RIPA buffer complemented with Halt Cocktail Inhibitors, and freeze/thaw 3 times. […] Significance was not seen without CRF due to low N#, but is highly significant with CRF.

[6] = In vivo pharmacokinetics, plasma and brain levels; settings: adult mice
Protocol: FIG. 10 illustrates in vivo pharmacokinetics for T41. As shown in the top panel, after oral or subcutaneous (SQ) dosing of adult mice at 10 or 30 mg/kg. and collection of plasma and brain at 1, 2, 4, and 8 hours, the brain/plasma ratio was ˜3:2 for 30 mg/kg oral dosing and ˜2:1 for 30 mg/kg SQ injection. […] After oral dosing at 30 mg/kg, brain levels peaked at 1 hour at 328 ng/g.

[7] = system: "Goldstein" (GS) prnp-huAPPwt-YFP mouse model; experiment: Novel Object Recognition (NOR) in corticosterone (CTS)-treated GS mice; assay type: in vivo; settings: T41 30 mkd oral 1 hour before CTS 30 mkd SQ, 21 days
From the text: (§1) The purpose of this study was to determine behavioral and biochemical effects of T41 (shown below and in FIG. 2) and its ability to prevent corticosterone (CTS)-induced increases in ptau in the “Goldstein” (GS) prnp-huAPPwt-YFP mouse model. Corticosterone is known to increase CRF, which then should bind the receptor and trigger increases in ptau with chronic CTS injection. Biochemistry included total tau, ptau, and sAPPα from combined entorhinal cortex and hippocampus. Levels of sAPPβ, βCTF, and […] and -42 are believed to be too low to detect in this model.

human sAPPα = experiment: In vivo sAPPα, CTS-treated GS mice; parameters: species or system mouse; settings: T41 30 mkd oral + CTS, 21 days
From the text: as §1
The assay used to detect sAPPα recognizes human sAPPα, therefore the signal is expected to be undetectable in NTg mice. There was little or no difference between GS Veh and GS CTS mice (FIG. 13). […] Increases in sAPPα are correlated with improvement in cognition.

ptau and total tau = experiment: In vivo ptau, total tau and ptau/tau ratio, combined entorhinal cortex and hippocampus, CTS-treated GS mice; parameters: species or system mouse; settings: T41 30 mkd oral + CTS, 21 days
[8] = 1 μM compound and 100 nM CRF, 24 hours
[9] = hippocampus and entorhinal cortex

PAMPA KIAM [1]: 6.34 | EC50 (CRFR1 [2]; values given in μM): > 2 µM | Kd (CRFR1 [4]): ~30 nM
Compound: CCC(COC)Nc1nc(C)nc(Oc2c(C)cc(C)cc2C)c1C (stereo not shown) [Compound T33]
p-tau [3]: slightly decreased | total tau [3]: slightly decreased

PAMPA KIAM [1]: 2.31 | Kd (CRFR1 [4]): > 100 nM
Compound: CCC(COC)Nc1nc(C)nc(Oc2ccc(OC)cc2C)c1C (stereo not shown) [Compound T36, 6-(4-methoxy-2-methylphenoxy)-N-(1-methoxybutan-2-yl)-2,5-dimethylpyrimidin-4-amine]

PAMPA KIAM [1]: 5.79 | Kd (CRFR1 [4]): > 100 nM
Compound: CCC(COC)Nc1nc(C)nc(Oc2ccc(Cl)cc2C)c1C (stereo not shown) [Compound T37, 6-(4-chloro-2-methylphenoxy)-N-(1-methoxybutan-2-yl)-2,5-dimethylpyrimidin-4-amine]

PAMPA KIAM [1]: 2.02 | EC50 (CRFR1 [2]; values given in μM): > 2 µM | Kd (CRFR1 [4]): ~30 nM
Compound: CCC(COC)Oc1nc(C)nc(Nc2ccc(OC)cc2C)c1C (stereo not shown) [Compound T38, N-(4-methoxy-2-methylphenyl)-6-((1-methoxybutan-2-yl)oxy)-2,5-dimethylpyrimidin-4-amine]

PAMPA KIAM [1]: 6.19 | EC50 (CRFR1 [2]; values given in μM): > 10 µM | Kd (CRFR1 [4]): 75 nM
Compound: CCC(COC)Oc1nc(C)nc(Nc2ccc(Cl)cc2C)c1C (stereo not shown) [Compound T39]
p-tau [3]: slightly decreased | p-tau/tau ratio [3]: significantly decreased | total tau [3]: slightly decreased

PAMPA KIAM [1]: 4.68 | Kd (CRFR1 [4]): > 100 nM
Compound: CCC(COC)Oc1nc(C)nc(OC(CC)COC)c1C (stereo not shown) [Compound T40]

PAMPA KIAM [1]: 4.01 | peak brain level ([6]; oral dosing at 30 mg/kg): 328 ng/g | time of peak brain level ([6]; oral dosing at 30 mg/kg): 1 h | Ki (CRFR1 [2]; CRFR1 cAMP signaling upon CRF binding): 400 nM | inhibition at 1 µM (CRFR1 [2]; at 1 μM, upon CRF binding): 70% | EC50 (CRFR1 [2]; values in nM): 0.4 µM | Kd (CRFR1 [4]): ~15 nM and 15 nM
Compound: CCC(COC)Oc1nc(C)nc(Nc2c(C)cc(C)cc2C)c1C (stereo not shown) [Compound T41]
p-tau [5, 8]: lowers p-tau with high significance | p-tau/tau ratio [5, 8]: significant lowering | tau [5, 8]: does not lower tau | ptau/tau ratio ([5]; with 100 nM CRF): lowers the ptau/tau ratio | ptau/tau ratio ([5]; without CRF): lowers the ptau/tau ratio | brain levels, comparison of doses and routes ([6]; 10 or 30 mg/kg, oral or SQ): higher at 30 than 10 mg/kg and higher with SQ injection than oral delivery | novelty preference (NOR), post-study [7]: promising trend toward some increased novelty preference | sAPPα (human sAPPα): trend toward an increase in sAPPα in T41-treated mice that was not statistically significant | p-tau [3]: slightly decreased | p-tau/tau ratio [3]: significantly decreased | total tau [3]: slightly decreased | ptau (ptau and total tau; [9]): no significant difference | total tau (ptau and total tau; [9]): overall had the highest value | ptau/tau ratio (ptau and total tau; versus CTS alone): T41 pre-treatment to prevent that increase

PAMPA KIAM [1]: 3.32 | Kd (CRFR1 [4]): > 100 nM
Compound: CCC(COC)Oc1nc(C)nc(Nc2ccc(F)cc2F)c1C (stereo not shown) [Compound T45]

PAMPA KIAM [1]: 2.90 | Kd (CRFR1 [4]): > 100 nM
Compound: CCC(COC)Oc1nc(C)nc(Nc2ccc(F)cc2C(F)(F)F)c1C (stereo not shown) [Compound T46]

PAMPA KIAM [1]: 2.00 | Kd (CRFR1 [4]): > 100 nM
Compound: CCC(COC)Oc1nc(C)nc(Nc2c(F)cc(F)cc2F)c1C (stereo not shown) [Compound T47]

PAMPA KIAM [1]: 3.27
Compound: CCC(COC)Oc1nc(C)nc(Nc2ccc(F)cc2C)c1C (stereo not shown) [Compound T48]

Kd (CRFR1 [4]): 40 nM
Compound: CCC(COC)Oc1nc(C)nc(Nc2c(C)cc(F)cc2C)c1C (stereo not shown) [Compound T49]

Kd (CRFR1 [4]): 1000 nM
Compound: CCC(COC)Oc1nc(C)nc(Nc2ncc(C)cc2C)c1C (stereo not shown) [Compound T51]

CRF1 (agonist radioligand) Kd/(nM) (CRFR1 [4]): DEAD
Compound: CCC(COC)Oc1nc(C)nc(Nc2cnn(C)c2C)c1C (stereo not shown) [Compound T53]

CRF1 (agonist radioligand) Kd/(nM) (CRFR1 [4]): DEAD
Compound: CCC(COC)Oc1nc(C)nc(Nc2ccn(C)n2)c1C (stereo not shown) [Compound T54]
